The results in this text go back to patent publication US12358951.

The conditions of this data set: amide bond, THF.

Read-outs that look alike come from different tables or passages of the source.

Under “from CCCC[C@@H](C(=O)N(C)[C@@H](CC(C)C)C(=O)N[C@H](C(=O)N[C@@H](CNC(=O)OCc1ccccc1)C(=O)O)C1CCCCC1)N(CC1CC1)C[C@@H](C)NC(=O)[C@@H](N)COCCCNC(=O)OC(C)(C)C, HATU/DIPEA, 1.14 mM, 19.0 h”, `CCCC[C@H]1C(=O)N(C)[C@@H](CC(C)C)C(=O)N[C@@H](C2CCCCC2)C(=O)N[C@@H](CNC(=O)OCc2ccccc2)C(=O)N[C@@H](COCCCNC(=O)OC(C)(C)C)C(=O)N[C@H](C)CN1CC1CC1` displayed a ring closure, yield of all isomers of 30%. For the setting “from CCCCCC[C@@H](OC[C@@H](C)N)[C@@H](C)C(=O)N(C)[C@@H](CCC)C(=O)N[C@H](C(=O)N[C@@H](CNC(=O)OCc1ccccc1)C(=O)N[C@@H](COC1CC2(C1)CN(C(=O)OC(C)(C)C)C2)C(=O)O)C1CCCCCC1, HATU, DIPEA, 1.35 mM, 25.0 °C, 2.5 h”, `CCCCCC[C@H]1OC[C@@H](C)NC(=O)[C@H](COC2CC3(C2)CN(C(=O)OC(C)(C)C)C3)NC(=O)[C@H](CNC(=O)OCc2ccccc2)NC(=O)[C@H](C2CCCCCC2)NC(=O)[C@H](CCC)N(C)C(=O)[C@@H]1C` gave a ring closure, yield of all isomers of 39%. Compound `CC[C@@H]1CN(CC2CCCC2)[C@@H](C)C(=O)N(C)[C@@H](CC(C)C)C(=O)N[C@@H](C2CCCCC2)C(=O)N[C@@H](CNC(=O)OCc2ccccc2)C(=O)N[C@@H]([C@H](C)OCc2ccccc2)C(=O)N1` had a ring closure, yield of all isomers (from CC[C@@H](N)CN(CC1CCCC1)[C@@H](C)C(=O)N(C)[C@@H](CC(C)C)C(=O)N[C@H](C(=O)N[C@@H](CNC(=O)OCc1ccccc1)C(=O)N[C@H](C(=O)O)[C@H](C)OCc1ccccc1)C1CCCCC1, HATU, DIPEA, 1.24 mM, 25.0 °C, 2.5 h) of 45.7%. The compound `CCCCCCN1C[C@@H](CCF)NC(=O)[C@H]([C@H](C)OCc2ccccc2)NC(=O)[C@H](CNC(=O)OCc2ccccc2)NC(=O)[C@H](C2CCCCC2)NC(=O)[C@H](CC(C)C)N(C)C(=O)[C@@H]1C` displayed a ring closure, yield of all isomers (from CCCCCCN(C[C@H](N)CCF)[C@@H](C)C(=O)N(C)[C@@H](CC(C)C)C(=O)N[C@H](C(=O)N[C@@H](CNC(=O)OCc1ccccc1)C(=O)N[C@H](C(=O)O)[C@H](C)OCc1ccccc1)C1CCCCC1, HATU/DIPEA, 1.36 mM, 25.0 °C, 20.0 h) of 43.4%. As to `CCCCCC[C@H]1OC[C@@H](C)NC(=O)[C@H](CNC(=O)OC(C)(C)C)NC(=O)[C@H](CNC(=O)OCc2ccccc2)NC(=O)[C@H](C2CCCCC2)NC(=O)[C@H](CC(C)C)N(C)C(=O)[C@@H]1C`, for the setting “from CCCCCC[C@@H](OC[C@@H](C)N)[C@@H](C)C(=O)N(C)[C@@H](CC(C)C)C(=O)N[C@H](C(=O)N[C@@H](CNC(=O)OCc1ccccc1)C(=O)N[C@@H](CNC(=O)OC(C)(C)C)C(=O)O)C1CCCCC1, HATU/DIPEA, 1.08 mM, 25.0 °C, 16.0 h”, the ring closure, yield of all isomers worked out at 55%.
